Data taken from article PMC8800111 (The Journal of Biological Chemistry, 2021).

Experiments:
Format in all cases: cell-based
[1] = molecular target: proteins of U3A human fibrosarcoma cells (4462 proteins detected) (Homo sapiens, UniProt O00299); details: protein CLIC1, U3A cells
[2] = molecular target: proteins of U3A human fibrosarcoma cells (4462 proteins detected) (Homo sapiens, UniProt O15164); details: protein TRIM24; U3A cells
[3] = molecular target: proteins of U3A human fibrosarcoma cells (4462 proteins detected) (Homo sapiens, UniProt P13796); details: protein LCP1; soluble abundance after heat, U3A cells
[4] = molecular target: proteins of U3A human fibrosarcoma cells (4462 proteins detected) (Homo sapiens, UniProt P26006); details: protein ITGA3; U3A cells
[5] = molecular target: proteins of U3A human fibrosarcoma cells (4462 proteins detected) (Homo sapiens, UniProt P36776); details: protein LONP1; U3A cells
[6] = molecular target: proteins of U3A human fibrosarcoma cells (4462 proteins detected) (Homo sapiens, UniProt P46060); details: protein RANGAP1; U3A cells
[7] = molecular target: proteins of U3A human fibrosarcoma cells (4462 proteins detected) (Homo sapiens, UniProt P50995); details: protein ANXA11; U3A cells
[8] = molecular target: proteins of U3A human fibrosarcoma cells (4462 proteins detected) (Homo sapiens, UniProt P54802); details: protein NAGLU, U3A cells
[9] = molecular target: proteins of U3A human fibrosarcoma cells (4462 proteins detected) (Homo sapiens, UniProt P61313); details: protein RPL15; U3A cells
[10] = molecular target: proteins of U3A human fibrosarcoma cells (4462 proteins detected) (Homo sapiens, UniProt Q04721); details: protein NOTCH2, U3A cells
[11] = molecular target: proteins of U3A human fibrosarcoma cells (4462 proteins detected) (Homo sapiens, UniProt Q15366); details: protein PCBP2; U3A cells
[12] = molecular target: proteins of U3A human fibrosarcoma cells (4462 proteins detected) (Homo sapiens, UniProt Q15370); details: protein TCEB2, U3A cells
[13] = molecular target: proteins of U3A human fibrosarcoma cells (4462 proteins detected) (Homo sapiens, UniProt Q15814); details: protein TBCC; U3A cells
[14] = molecular target: proteins of U3A human fibrosarcoma cells (4462 proteins detected) (Homo sapiens, UniProt Q6P1N0); details: protein CC2D1A; soluble abundance after heat, U3A cells
[15] = molecular target: proteins of U3A human fibrosarcoma cells (4462 proteins detected) (Homo sapiens, UniProt Q8IVL0); details: protein NAV3, U3A cells
[16] = molecular target: proteins of U3A human fibrosarcoma cells (4462 proteins detected) (Homo sapiens, UniProt Q8IXQ4); details: protein GPALPP1, U3A cells
[17] = molecular target: proteins of U3A human fibrosarcoma cells (4462 proteins detected) (Homo sapiens, UniProt Q8NFF5); details: protein FLAD1; U3A cells
[18] = molecular target: proteins of U3A human fibrosarcoma cells (4462 proteins detected) (Homo sapiens, UniProt Q92530); details: protein PSMF1; soluble abundance after heat, U3A cells
[19] = molecular target: proteins of U3A human fibrosarcoma cells (4462 proteins detected) (Homo sapiens, UniProt Q92688); details: protein ANP32B, U3A cells
[20] = molecular target: proteins of U3A human fibrosarcoma cells (4462 proteins detected) (Homo sapiens, UniProt Q96Q89); details: protein KIF20B; U3A cells
[21] = molecular target: proteins of U3A human fibrosarcoma cells (4462 proteins detected) (Homo sapiens, UniProt Q99633); details: protein PRPF18; U3A cells
[22] = molecular target: proteins of U3A human fibrosarcoma cells (4462 proteins detected) (Homo sapiens, UniProt Q9BQP7); details: protein MGME1; soluble abundance after heat, U3A cells
[23] = molecular target: proteins of U3A human fibrosarcoma cells (4462 proteins detected) (Homo sapiens, UniProt Q9BT78); details: protein COPS4; U3A cells
[24] = molecular target: proteins of U3A human fibrosarcoma cells (4462 proteins detected) (Homo sapiens, UniProt Q9BUL5); details: protein PHF23, U3A cells
[25] = molecular target: proteins of U3A human fibrosarcoma cells (4462 proteins detected) (Homo sapiens, UniProt Q9NRL3); details: protein STRN4; U3A cells
[26] = molecular target: proteins of U3A human fibrosarcoma cells (4462 proteins detected) (Homo sapiens, UniProt Q9UIS9); details: protein MBD1; U3A cells
[27] = molecular target: proteins of U3A human fibrosarcoma cells (4462 proteins detected) (Homo sapiens, UniProt Q9UMX5); details: protein NENF, U3A cells
[28] = molecular target: proteins of U3A human fibrosarcoma cells (4462 proteins detected) (Homo sapiens, UniProt Q9UNN8); details: protein PROCR; U3A cells
[29] = molecular target: proteins of U3A human fibrosarcoma cells (4462 proteins detected) (Homo sapiens, UniProt Q9UQR1); details: protein ZNF148; U3A, 10 μM, 2 h
[30] = molecular target: proteins of U3A human fibrosarcoma cells (4462 proteins detected) (Homo sapiens, UniProt Q9Y221); details: protein NIP7; soluble abundance after heat, U3A cells
Chain of proteins of U3A human fibrosarcoma cells (4462 proteins detected) (Homo sapiens, UniProt Q9Y221) (Q9Y221 whole entry): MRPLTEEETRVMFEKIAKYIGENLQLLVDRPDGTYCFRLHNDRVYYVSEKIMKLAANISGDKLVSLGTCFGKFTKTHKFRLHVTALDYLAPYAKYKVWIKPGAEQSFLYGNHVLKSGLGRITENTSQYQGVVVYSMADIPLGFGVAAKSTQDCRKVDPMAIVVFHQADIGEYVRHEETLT

Chain of proteins of U3A human fibrosarcoma cells (4462 proteins detected) (Homo sapiens, UniProt Q9NRL3) (Q9NRL3 whole entry): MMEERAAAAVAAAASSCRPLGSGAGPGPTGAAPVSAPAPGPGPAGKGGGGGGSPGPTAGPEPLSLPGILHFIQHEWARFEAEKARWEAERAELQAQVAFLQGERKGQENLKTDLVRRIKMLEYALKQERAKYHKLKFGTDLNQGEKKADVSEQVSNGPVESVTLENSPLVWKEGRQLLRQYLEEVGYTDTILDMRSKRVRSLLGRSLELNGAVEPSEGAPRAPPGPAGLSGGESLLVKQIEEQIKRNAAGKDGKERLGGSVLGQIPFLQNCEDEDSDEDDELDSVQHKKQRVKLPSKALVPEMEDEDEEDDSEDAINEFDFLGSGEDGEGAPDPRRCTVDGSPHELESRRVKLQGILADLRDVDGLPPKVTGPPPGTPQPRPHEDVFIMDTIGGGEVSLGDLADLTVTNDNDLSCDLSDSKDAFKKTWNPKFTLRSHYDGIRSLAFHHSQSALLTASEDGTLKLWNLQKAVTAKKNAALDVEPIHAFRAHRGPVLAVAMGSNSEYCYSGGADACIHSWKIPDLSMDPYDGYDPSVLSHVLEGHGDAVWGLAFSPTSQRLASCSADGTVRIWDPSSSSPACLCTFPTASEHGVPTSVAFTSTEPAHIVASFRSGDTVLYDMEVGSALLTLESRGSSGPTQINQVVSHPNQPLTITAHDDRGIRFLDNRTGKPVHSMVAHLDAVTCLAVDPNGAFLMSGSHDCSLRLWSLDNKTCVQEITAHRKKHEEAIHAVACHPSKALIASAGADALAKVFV
Chain of proteins of U3A human fibrosarcoma cells (4462 proteins detected) (Homo sapiens, UniProt Q6P1N0) (Q6P1N0 whole entry): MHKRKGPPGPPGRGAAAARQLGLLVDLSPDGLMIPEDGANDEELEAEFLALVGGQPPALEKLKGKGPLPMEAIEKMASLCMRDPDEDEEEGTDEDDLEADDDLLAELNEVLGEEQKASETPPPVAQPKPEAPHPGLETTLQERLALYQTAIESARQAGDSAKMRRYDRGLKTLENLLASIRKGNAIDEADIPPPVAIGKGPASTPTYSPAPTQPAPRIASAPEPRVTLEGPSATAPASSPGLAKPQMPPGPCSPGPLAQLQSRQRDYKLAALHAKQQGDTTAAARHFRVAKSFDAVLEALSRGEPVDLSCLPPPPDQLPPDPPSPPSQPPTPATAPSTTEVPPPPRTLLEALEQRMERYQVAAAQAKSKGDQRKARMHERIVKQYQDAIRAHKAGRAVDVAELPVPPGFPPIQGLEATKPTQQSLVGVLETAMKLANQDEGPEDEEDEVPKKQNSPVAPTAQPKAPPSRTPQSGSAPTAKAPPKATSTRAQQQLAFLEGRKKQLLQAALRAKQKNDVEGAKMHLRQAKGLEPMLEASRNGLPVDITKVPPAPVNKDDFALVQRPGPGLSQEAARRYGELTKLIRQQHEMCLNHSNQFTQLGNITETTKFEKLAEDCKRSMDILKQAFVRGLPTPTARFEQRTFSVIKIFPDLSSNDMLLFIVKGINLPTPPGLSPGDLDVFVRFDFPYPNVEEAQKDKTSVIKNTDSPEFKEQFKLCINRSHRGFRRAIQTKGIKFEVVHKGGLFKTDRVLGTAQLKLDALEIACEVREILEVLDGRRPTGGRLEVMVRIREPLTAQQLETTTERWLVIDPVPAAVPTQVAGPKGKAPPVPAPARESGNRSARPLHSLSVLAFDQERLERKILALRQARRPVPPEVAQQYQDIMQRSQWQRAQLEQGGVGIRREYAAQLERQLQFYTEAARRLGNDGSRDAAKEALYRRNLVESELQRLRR
Chain of proteins of U3A human fibrosarcoma cells (4462 proteins detected) (Homo sapiens, UniProt P36776) (P36776 68-959): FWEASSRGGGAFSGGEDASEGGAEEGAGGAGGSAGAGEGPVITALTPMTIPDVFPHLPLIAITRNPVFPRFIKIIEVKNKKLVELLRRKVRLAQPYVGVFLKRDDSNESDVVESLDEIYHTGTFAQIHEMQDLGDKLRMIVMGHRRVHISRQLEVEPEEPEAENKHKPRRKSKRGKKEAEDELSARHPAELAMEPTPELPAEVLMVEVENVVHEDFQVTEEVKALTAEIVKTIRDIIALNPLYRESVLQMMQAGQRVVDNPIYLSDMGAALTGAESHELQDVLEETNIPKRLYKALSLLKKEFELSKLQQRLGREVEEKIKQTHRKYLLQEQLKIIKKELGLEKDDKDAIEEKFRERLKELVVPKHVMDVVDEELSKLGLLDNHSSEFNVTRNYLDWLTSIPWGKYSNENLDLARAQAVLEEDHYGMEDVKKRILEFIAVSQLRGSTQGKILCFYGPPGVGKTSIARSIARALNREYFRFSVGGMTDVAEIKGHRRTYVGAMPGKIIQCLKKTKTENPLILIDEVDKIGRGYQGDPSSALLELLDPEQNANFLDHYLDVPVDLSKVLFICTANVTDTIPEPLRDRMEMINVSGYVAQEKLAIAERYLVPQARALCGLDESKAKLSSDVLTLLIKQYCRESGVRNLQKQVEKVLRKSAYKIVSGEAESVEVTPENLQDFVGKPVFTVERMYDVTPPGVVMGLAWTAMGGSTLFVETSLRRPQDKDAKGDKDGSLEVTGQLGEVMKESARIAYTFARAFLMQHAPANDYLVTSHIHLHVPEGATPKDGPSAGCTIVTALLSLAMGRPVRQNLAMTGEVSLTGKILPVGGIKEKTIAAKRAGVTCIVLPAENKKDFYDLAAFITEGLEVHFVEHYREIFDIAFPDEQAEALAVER
Chain of proteins of U3A human fibrosarcoma cells (4462 proteins detected) (Homo sapiens, UniProt P26006) (P26006 33-1051): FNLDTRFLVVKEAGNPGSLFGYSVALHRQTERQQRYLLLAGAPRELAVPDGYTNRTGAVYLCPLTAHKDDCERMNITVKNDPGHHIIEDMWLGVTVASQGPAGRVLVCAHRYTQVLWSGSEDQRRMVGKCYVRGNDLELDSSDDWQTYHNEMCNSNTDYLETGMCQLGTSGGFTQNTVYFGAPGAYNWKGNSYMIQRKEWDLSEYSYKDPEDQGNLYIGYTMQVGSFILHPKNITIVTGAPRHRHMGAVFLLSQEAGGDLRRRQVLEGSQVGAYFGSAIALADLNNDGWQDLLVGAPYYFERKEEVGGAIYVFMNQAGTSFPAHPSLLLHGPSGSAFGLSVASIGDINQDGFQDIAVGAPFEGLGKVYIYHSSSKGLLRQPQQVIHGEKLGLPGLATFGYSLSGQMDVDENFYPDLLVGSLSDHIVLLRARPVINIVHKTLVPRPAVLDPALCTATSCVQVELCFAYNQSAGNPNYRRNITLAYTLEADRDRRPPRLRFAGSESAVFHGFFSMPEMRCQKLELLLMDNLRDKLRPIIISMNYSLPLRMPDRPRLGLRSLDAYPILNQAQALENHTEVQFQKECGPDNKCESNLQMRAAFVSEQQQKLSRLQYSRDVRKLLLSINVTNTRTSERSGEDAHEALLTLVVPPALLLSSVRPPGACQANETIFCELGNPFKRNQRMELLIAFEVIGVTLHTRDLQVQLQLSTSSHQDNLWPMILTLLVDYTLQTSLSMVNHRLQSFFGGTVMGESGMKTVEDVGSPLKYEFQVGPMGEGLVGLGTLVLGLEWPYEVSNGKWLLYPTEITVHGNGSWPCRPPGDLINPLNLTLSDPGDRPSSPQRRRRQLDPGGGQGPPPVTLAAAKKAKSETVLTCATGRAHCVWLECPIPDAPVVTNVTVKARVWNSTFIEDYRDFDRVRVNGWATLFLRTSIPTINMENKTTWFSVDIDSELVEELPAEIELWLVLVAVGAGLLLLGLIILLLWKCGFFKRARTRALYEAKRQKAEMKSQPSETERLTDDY
Chain of proteins of U3A human fibrosarcoma cells (4462 proteins detected) (Homo sapiens, UniProt Q8IXQ4) (Q8IXQ4 whole entry): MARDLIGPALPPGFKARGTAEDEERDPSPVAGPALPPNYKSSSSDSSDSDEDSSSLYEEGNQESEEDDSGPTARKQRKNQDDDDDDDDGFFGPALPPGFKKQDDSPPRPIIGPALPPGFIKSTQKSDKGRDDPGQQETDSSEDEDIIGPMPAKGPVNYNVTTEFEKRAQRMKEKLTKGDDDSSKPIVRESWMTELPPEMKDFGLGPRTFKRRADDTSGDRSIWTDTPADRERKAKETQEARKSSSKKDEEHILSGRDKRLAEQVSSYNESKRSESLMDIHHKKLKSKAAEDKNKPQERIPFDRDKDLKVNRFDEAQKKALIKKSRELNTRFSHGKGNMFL
Chain of proteins of U3A human fibrosarcoma cells (4462 proteins detected) (Homo sapiens, UniProt Q15366) (Q15366 whole entry): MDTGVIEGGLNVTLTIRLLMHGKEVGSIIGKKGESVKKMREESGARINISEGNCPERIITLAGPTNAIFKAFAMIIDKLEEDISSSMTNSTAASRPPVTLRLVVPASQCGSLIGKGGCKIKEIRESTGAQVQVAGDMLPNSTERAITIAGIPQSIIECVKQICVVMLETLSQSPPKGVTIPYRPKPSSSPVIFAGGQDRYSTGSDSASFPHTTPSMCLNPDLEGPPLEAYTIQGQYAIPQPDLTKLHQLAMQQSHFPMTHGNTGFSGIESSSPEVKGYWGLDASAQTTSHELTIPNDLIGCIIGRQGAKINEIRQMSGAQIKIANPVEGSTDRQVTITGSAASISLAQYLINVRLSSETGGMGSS
Chain of proteins of U3A human fibrosarcoma cells (4462 proteins detected) (Homo sapiens, UniProt Q9BQP7) (Q9BQP7 whole entry): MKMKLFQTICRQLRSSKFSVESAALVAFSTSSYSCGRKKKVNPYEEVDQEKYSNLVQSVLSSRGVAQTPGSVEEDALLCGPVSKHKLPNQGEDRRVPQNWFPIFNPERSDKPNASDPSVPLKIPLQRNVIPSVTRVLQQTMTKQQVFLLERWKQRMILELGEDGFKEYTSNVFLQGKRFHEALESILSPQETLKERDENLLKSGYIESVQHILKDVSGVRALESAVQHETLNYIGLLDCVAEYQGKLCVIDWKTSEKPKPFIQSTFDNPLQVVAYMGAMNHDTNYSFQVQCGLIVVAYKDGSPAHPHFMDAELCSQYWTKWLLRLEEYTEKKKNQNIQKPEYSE
Chain of proteins of U3A human fibrosarcoma cells (4462 proteins detected) (Homo sapiens, UniProt Q15370) (Q15370 whole entry): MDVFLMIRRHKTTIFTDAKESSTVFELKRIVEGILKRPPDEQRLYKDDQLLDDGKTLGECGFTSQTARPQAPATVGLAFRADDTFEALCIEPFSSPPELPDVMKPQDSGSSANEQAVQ

Compound: CCc1nc(N)nc(N)c1-c1ccc(Cl)cc1 [pyrimethamine]
- Log2 (PYR/DMSO) [1]: -0.03
- Log2 (PYR/DMSO) [2]: 0.16
- Log2 (PYR/DMSO) [3]: 0.15
- Log2 (PYR/DMSO) [4]: 0.16
- Log2 (PYR/DMSO) [5]: 0.22
- Log2 (PYR/DMSO) [6]: 0.18
- Log2 (PYR/DMSO) [7]: 0.19
- Log2 (PYR/DMSO) [8]: -0.03
- Log2 (PYR/DMSO) [9]: 0.20
- Log2 (PYR/DMSO) [10]: -0.04
- Log2 (PYR/DMSO) [11]: 0.18
- Log2 (PYR/DMSO) [12]: -0.04
- Log2 (PYR/DMSO) [13]: 0.20
- Log2 (PYR/DMSO) [14]: 0.15
- Log2 (PYR/DMSO) [15]: -0.04
- Log2 (PYR/DMSO) [16]: -0.04
- Log2 (PYR/DMSO) [17]: 0.16
- Log2 (PYR/DMSO) [18]: 0.13
- Log2 (PYR/DMSO) [19]: -0.03
- Log2 (PYR/DMSO) [20]: 0.23
- Log2 (PYR/DMSO) [21]: 0.16
- Log2 (PYR/DMSO) [22]: 0.14
- Log2 (PYR/DMSO) [23]: 0.20
- Log2 (PYR/DMSO) [24]: -0.04
- Log2 (PYR/DMSO) [25]: 0.16
- Log2 (PYR/DMSO) [26]: 0.19
- Log2 (PYR/DMSO) [27]: -0.04
- Log2 (PYR/DMSO) [28]: 0.18
- Log2 (PYR/DMSO), ZNF148 [29]: 0.26
- Log2 (PYR/DMSO) [30]: 0.14
